Laboratory results reported in patent US7589123B2, “Chemical compounds” (Phytopharm PLC, priority 2006, dated 2009).

How the values were obtained:
[1] = tested on: 5-HT-induced contractions in guinea pig ileum; assay: Inhibition of 5-HT-induced contractions in guinea pig ileum (Assay 3); settings: Cavia porcellus, 5-HT 2.6 μM, read-out: Inhibition of 5-HT-induced contraction (%)
Summary of the method: (§1)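 Isolated male guinea pig ileum strips in Krebs at 32° C, pH 7.4, 1 g resting tension, isotonic recording. Contraction to test compound (3 and 30 μM) alone recorded, then inhibition of responses to histamine 1.7 μM or 5-HT 2.6 μM (~EC60-70, 5 min) measured in its continued presence.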

[2] = tested on: histamine-induced contractions in guinea pig ileum; assay: Inhibition of histamine-induced contractions in guinea pig ileum (Assay 3); settings: Cavia porcellus, histamine 1.7 μM, read-out: Inhibition of histamine-induced contraction (%)
Summary of the method: as §1

5-lipoxygenase = target: T1, 5-lipoxygenase (Homo sapiens, UniProt P09917); assay: 5-lipoxygenase activity (LTB4) in human peripheral blood mononuclear leukocytes (Assay 6); type: cell-based; settings: human PBMLs, A23187 30 μM, read-out: Inhibition of 5-LO (%)
T1 construct: endogenous in cells; host or cells: human peripheral blood mononuclear leukocytes (PBMLs)
T1 sequence (P09917 1-674): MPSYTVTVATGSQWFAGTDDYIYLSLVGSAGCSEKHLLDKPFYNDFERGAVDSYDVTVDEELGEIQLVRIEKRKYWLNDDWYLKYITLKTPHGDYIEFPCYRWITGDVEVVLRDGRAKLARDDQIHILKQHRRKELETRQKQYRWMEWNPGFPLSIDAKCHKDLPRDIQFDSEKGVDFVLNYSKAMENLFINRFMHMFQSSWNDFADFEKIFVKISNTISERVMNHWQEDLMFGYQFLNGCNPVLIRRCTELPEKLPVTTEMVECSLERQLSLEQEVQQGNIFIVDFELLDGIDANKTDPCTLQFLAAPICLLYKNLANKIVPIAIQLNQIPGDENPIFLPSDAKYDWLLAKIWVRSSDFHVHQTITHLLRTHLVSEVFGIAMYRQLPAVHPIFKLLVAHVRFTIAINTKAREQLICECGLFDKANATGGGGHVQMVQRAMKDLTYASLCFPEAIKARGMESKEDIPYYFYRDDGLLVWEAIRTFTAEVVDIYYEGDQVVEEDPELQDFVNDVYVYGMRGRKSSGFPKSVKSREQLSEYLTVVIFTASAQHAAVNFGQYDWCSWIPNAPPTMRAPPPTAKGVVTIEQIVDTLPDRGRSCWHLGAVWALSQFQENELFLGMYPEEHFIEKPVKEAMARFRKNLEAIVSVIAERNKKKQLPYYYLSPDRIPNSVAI
Summary of the method: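 Human PBMLs (5×10^6 cells, Ficoll-isolated) stimulated with 30 μM A23187 plus compound at 3 or 30 μM or 0.1% DMSO in HBSS pH 7.4, 37° C., 15 min. After NaOH neutralisation and centrifugation, supernatant LTB4 measured by enzyme immunoassay.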

TRPV1 receptor = TRPV1 receptor (Rattus norvegicus, UniProt O35433); assay: TRPV1 modulation in DRG neurones: CGRP release in absence and presence of capsaicin (Assay 2); type: cell-based; design: The culture used for this experiment contained sensory neurones, Schwann cells and fibroblasts; endogenous in cells; host or cells: primary rat DRG sensory neurone culture (with Schwann cells and fibroblasts); settings: 20 min; for inhibition at 3 µM: 3 μM with capsaicin 1 μM; for inhibition at 3 µM / inhibition at 30 µM: −ve: inhibition, +ve: potentiation of capsaicin response, read-out: Effect of test compounds on capsaicin (1 μM)-induced CGRP release (%); for inhibition at 30 µM: 30 μM with capsaicin 1 μM; for Emax at 3 µM: test compound alone 3 μM; for Emax at 3 µM / Emax at 30 µM: rat DRG sensory neurones, read-out: CGRP release (% of capsaicin (1 μM) response); for Emax at 30 µM: test compound alone 30 μM
Sequence of TRPV1 receptor (O35433 whole entry): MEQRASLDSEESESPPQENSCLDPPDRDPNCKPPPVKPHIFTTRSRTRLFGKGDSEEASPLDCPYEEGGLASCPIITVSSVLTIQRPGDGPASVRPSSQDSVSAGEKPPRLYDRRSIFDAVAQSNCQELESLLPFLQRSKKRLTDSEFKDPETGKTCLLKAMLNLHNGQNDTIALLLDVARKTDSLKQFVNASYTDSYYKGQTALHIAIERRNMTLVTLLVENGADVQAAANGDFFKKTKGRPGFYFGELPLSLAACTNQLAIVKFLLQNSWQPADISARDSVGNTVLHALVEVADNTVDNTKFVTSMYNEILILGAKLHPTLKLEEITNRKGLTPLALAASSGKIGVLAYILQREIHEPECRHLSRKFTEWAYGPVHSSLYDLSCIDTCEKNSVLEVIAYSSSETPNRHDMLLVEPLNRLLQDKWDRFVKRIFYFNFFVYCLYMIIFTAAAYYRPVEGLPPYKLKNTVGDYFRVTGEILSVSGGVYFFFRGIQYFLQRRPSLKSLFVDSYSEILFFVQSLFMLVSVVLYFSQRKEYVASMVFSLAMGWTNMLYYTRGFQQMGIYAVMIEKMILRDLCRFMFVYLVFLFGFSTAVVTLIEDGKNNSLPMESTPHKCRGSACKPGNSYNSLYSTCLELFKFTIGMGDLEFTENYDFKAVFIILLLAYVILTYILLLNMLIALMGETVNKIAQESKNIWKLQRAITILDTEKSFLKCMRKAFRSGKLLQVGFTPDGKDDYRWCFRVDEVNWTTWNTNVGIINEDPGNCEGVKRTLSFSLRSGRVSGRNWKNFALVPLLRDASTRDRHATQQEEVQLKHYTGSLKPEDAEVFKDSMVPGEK

WI-38 cells = assay: Viability of WI-38 cells, Alamar Blue (Assay 5); type: cell-based, human
Summary of the method: (§2)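 WI-38 fibroblasts stimulated overnight at 37 °C with 1 nM IL-1α plus test compound at 3 and 30 μM in MEM with 10% FBS, pH 7.3; released PGE2 in supernatant quantified by radioimmunoassay as percent inhibition. Viability then checked by Alamar Blue, 4 h at 37 °C, fluorescence ex 530/em 590 nm.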

[3] = tested on: IL-1α-induced PGE2 release; assay: IL-1α-induced PGE2 release in human diploid lung fibroblasts (WI-38) (Assay 5); type: cell-based; settings: Homo sapiens, WI-38 cells, IL-1α 1 nM, overnight
Summary of the method: as §2

[4] = tested on: α-smooth muscle actin (α-SMA) mRNA; assay: Anti-remodelling activity in human lung fibroblasts (HFL1): TGFβ-induced α-SMA mRNA (Assay 4); type: cell-based; settings: Homo sapiens, HFL1 cells, TGFβ 10 ng/ml, 24 h, read-out: Inhibition of α-SMA mRNA synthesis (%)
Summary of the method: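 Real-time RT-PCR of α-SMA mRNA, GAPDH as reference, measured after 24 h exposure of low-serum-primed HFL1 cells to 10 ng/ml TGFβ with test compounds (3 and 30 μM) in 10% FBS medium. Readout is inhibition of TGFβ-driven α-SMA mRNA overexpression.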

Structure (SMILES) | inhibition at 3 µM [1] [%] | inhibition at 30 µM [1] [%] | inhibition at 3 µM [2] [%] | inhibition at 30 µM [2] [%] | inhibition at 3 µM (5-lipoxygenase) [%] | inhibition at 30 µM (5-lipoxygenase) [%] | inhibition at 3 µM (TRPV1 receptor) [%] | inhibition at 30 µM (TRPV1 receptor) [%] | Emax at 3 µM (TRPV1 receptor) [%] | Emax at 30 µM (TRPV1 receptor) [%] | Decrease in cell viability (%) (WI-38 cells; 3 μM) | Decrease in cell viability (%) (WI-38 cells; 30 μM) | inhibition at 3 µM [3] [%] | inhibition at 30 µM [3] [%] | inhibition at 3 µM [4] [%] | inhibition at 30 µM [4] [%]
COc1cc(CCC(=O)C(C)C(=O)C2(C)CC2)ccc1O (stereo not shown) [Compound 7, 5-(4-Hydroxy-3-methoxylphenyl)-2-methyl-1-(1-methylcyclopropyl)-pentane-1,3-dione] | 0 | 26 | 4 | 12 | 24 | 63 | 19 | 41 | 35 | 76 | −4 | 4 | 47 | 94 | -8 | 9
COc1cc(CCC(=O)CC(=O)c2ccccc2Cl)ccc1O [Compound 74, 1-(2-Chlorophenyl)-5-(4-hydroxy-3-methoxyphenyl)pentane-1,3-dione] | 10 | 89 | 1 | 41 | 60 | 98 | 15 | 6 | 54 | 75 | 1 | 16 | 99 | 101 | -4 | 53
CCC(C(=O)CCc1ccc(O)c(OC)c1)C(=O)c1ccccc1 (stereo not shown) [Compound 12, 2-Ethyl-5-(4-hydroxy-3-methoxyphenyl)-1-phenyl-pentane-1,3-dione] | 3 | 47 | 3 | 41 | 41 | 94 | 13 | 14 | 19 | 73 | 6 | −5 | 69 | 101 | 9 | 34
COc1cc(CCC(=O)CC(=O)c2cccc(Cl)c2)ccc1O [Compound 22, 1-(3-Chlorophenyl)-5-(4-hydroxy-3-methoxyphenyl)pentane-1,3-dione] | 18 | 94 | 11 | 65 | 62 | 98 | 2 | -58 | 60 | 163 | 3 | 9 | 93 | 100 | -5 | 25
COc1cc(CCC(=O)CC(=O)c2ccc(C#N)cc2)ccc1O [Compound 82, 1-(4-Cyanophenyl)-5-(4-hydroxy-3-methoxyphenyl)pentane-1,3-dione] | 13 | 83 | 12 | 20 | 48 | 97 | 4 | 27 | 53 | 58 | −4 | 6 | 78 | 102 | -3 | 39
COc1cc(CCC(=O)C(C)C(=O)c2ccc(O)c(OC)c2)ccc1O (stereo not shown) [Compound 16, 1,5-Bis(4-hydroxy-3-methoxyphenyl)-2-methyl-pentane-1,3-dione] | 0 | 28 | 4 | 22 | 20 | 73 | -49 | -49 | 53 | 52 | 10 | −9 | 32 | 83 | -8 | 10
COc1cc(CCC(=O)CC(=O)c2ccc(O)c(OC)c2)ccc1O [Compound 15, 1,5-Bis(4-hydroxy-3-methoxyphenyl)-pentane-1,3-dione] | 0 | 54 | 0 | 13 | 16 | 63 | 18 | 27 | 34 | 34 | −2 | −1 | 49 | 95 | 13 | 29
